Columns and labels:
Type in all cases: cell-based, human
[1] = system: SEE transcytosis across T-84 cell monolayers
[2] = system: TSST-1 transcytosis across T-84 cell monolayers
[3] = system: SEA transcytosis across T-84 cell monolayers
[4] = system: SEB transcytosis across T-84 cell monolayers

KKKVTAQELD [SEB 152-161]
transcytosis of SEE reduced [1]: 68%
transcytosis of TSST-1 reduced [2]: 59%
transcytosis of SEA reduced [3]: 73%
movement of SEB across the monolayers reduced by [4]: 85%

From patent US20050191315A1 (priority 2002, published 2005)
